Source: the supplement of paper PMC10307832

What was measured:
Test in all cases: relative viability (nuclei count vs DMSO), 5 days (fraction); higher = more cells survive
[1] = compound: CCCCCCCC[C@H]1[C@@H](C(=C)C(=O)O1)C(=O)O [C-75]
Procedure, shortened: (§1)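 A plate was accepted only when its control CV was below 25% and the cells had doubled at least once. Viability is defined from nuclear counts as treated wells divided by vehicle wells, with the median taken across plates. That median covers lung cancer cell lines grown in 1536-well plates, dosed by pinning at five √10-spaced library-drug concentrations, and counted in MetaXpress from 4× Hoechst images after 5 days.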

[2] = compound: O=C(O)c1ccc(-c2c[nH]c3ncc(-c4ccccc4)cc23)cc1C1CCCC1
Procedure, shortened: as §1

[3] = compound: NC(=O)Nc1cc(-c2cccc(F)c2)sc1C(=O)N[C@H]1CCCNC1 [AZD7762]
Procedure, shortened: as §1

[4] = compound: CC1(C)CCC(c2ccc(Cl)cc2)=C(CN2CCN(c3ccc(C(=O)NS(=O)(=O)c4ccc(N[C@H](CCN5CCOCC5)CSc5ccccc5)c(S(=O)(=O)C(F)(F)F)c4)cc3)CC2)C1 [Navitoclax]
Procedure, shortened: as §1

[5] = compound: Oc1nc(-c2ccc(C(F)(F)F)cc2)nc2c1CSCC2 [XAV939]
Procedure, shortened: as §1

Cell Line	relative viability ([1]; 0.08 µM)	relative viability ([1]; 0.253 µM)	relative viability ([1]; 0.8 µM)	relative viability ([1]; 2.53 µM)	relative viability ([1]; 8 µM)	relative viability ([2]; 0.04 µM)	relative viability ([2]; 0.1265 µM)	relative viability ([2]; 0.4 µM)	relative viability ([2]; 1.265 µM)	relative viability ([3]; 0.01 µM)	relative viability ([3]; 0.03162 µM)	relative viability ([3]; 0.1 µM)	relative viability ([3]; 0.2 µM, anchor plate)	relative viability ([3]; 0.3162 µM)	relative viability ([3]; 1 µM)	relative viability ([4]; 0.005 µM)	relative viability ([4]; 0.01581 µM)	relative viability ([4]; 0.05 µM)	relative viability ([4]; 0.1581 µM)	relative viability ([4]; 0.5 µM)	relative viability ([4]; 0.5 µM, anchor plate)	relative viability ([5]; 0.08 µM)	relative viability ([5]; 0.253 µM)	relative viability ([5]; 0.8 µM)	relative viability ([5]; 2.53 µM)
H3255	0.963	0.973	0.945	0.901	0.995	0.954	1.04	0.97	0.944	1.05	1.04	1.04	0.971	0.958	0.856	0.979	1.17	0.87	0.92	0.786	0.529	1.06	0.892	0.814	0.895
HARA	0.989	0.963	0.858	0.788	1.03	0.955	1.23	0.846	1.02	0.986	0.946	0.999	0.367	0.88	0.368	0.84	1.26	0.811	0.911	1.01	1.13	1.04	0.904	0.825	0.764
HCC-15	1	0.965	0.968	0.798	0.925	1.03	1.07	0.965	0.586	1.02	0.907	1.02	1.24	0.969	1.03	0.986	1.14	0.838	0.99	0.947	0.696	1.14	0.932	0.96	0.971
HCC-44	1	0.991	0.908	0.824	1.05	0.97	0.99	0.973	0.928	1.01	0.958	1.06	1	0.874	0.914	0.897	0.906	0.977	0.849	0.96	0.98	0.962	0.899	0.915	0.929
HCC-78	0.948	0.882	0.817	0.761	0.95	0.929	1.24	1.1	0.864	1.02	1.14	0.978	0.706	0.95	0.552	1.03	1.11	0.729	0.958	1.02	0.737	0.923	0.8	0.919	0.667
HCC-366	0.974	1.11	0.975	0.763	0.982	1	1.02	0.998	0.971	0.981	1.03	0.998	0.289	0.886	0.393	1.04	1.05	0.728	0.968	1.07	1.03	0.971	0.9	1	1.01
